Measurements published in publication PMC6199744, “Development of Chemical Proteomics for the Folateome and Analysis of the Kinetoplastid Folateome” (ACS Infectious Diseases, 2018).
Where “and” joins values, the source holds several entries; their conditions need not be identical. Identical values can stand only once. Like-named read-outs stand apart in the source and are kept apart here.

System: L. major lysate proteins
Assay: Multitargeted bead mixture chemoproteomics, single concentration competition, proteome-wide
Format: binding
Conditions: for fold change / fold change relative to vehicle control: vehicle control = 1; for fold change relative to vehicle control: competition with free ligand

For `Nc1nc2cccc(-c3ccccc3)c2n1Cc1ccc(Cl)c(Cl)c1` [compound 3], the “fold change vs vehicle control” value was 1.02 and 1.09 and 1, the fold change (LINJ.05.0500 ATPASE ALPHA SUBUNIT) was 1.08 and the fold change (LINJ.36.4570 […] SUBUNIT) was 0.83. For the same compound, the fold change (LMJF.10.0510 GLYCEROL-3-PHOSPHATE DEH[…] ], GLYCOSOMAL) was 0.91, the fold change (LMJF.16.1610 PROHIBITIN) was 1.25 and the fold change (LMJF.18.1370 HEAT SHOCK PROTEIN, PUTATIVE) was 1.16. It also gave a fold change (LMJF.19.0300 RNA BINDING PROTEIN, PUTATIVE) of 0.91, a fold change (LMJF.21.0760 […]-ATP-ASE SUBUNIT 5, PUTATIVE) of 0.77 and a fold change (LMJF.22.0410 HY[…], CONSERVED) of 0.97. For the same compound, the fold change (LMJF.25.1770 ENOYL-COA REDUCTASE, PUTATIVE) was 1.06, the fold change (LMJF.26.0300 AMINOPEPTIDASE-LIKE PROTEIN) was 0.7 and the fold change (LMJF.26.2560 HY[…], CONSERVED) was 1.1. It also gave a fold change (LMJF.27.1810 GLYCOSOMAL PHOSPHOENOLPYRUVATE CARBOXYKINASE, PUTATIVE) of 1.1, a fold change (LMJF.28.0490 PROPIONYL-COA C[…] CHAIN, PUTATIVE) of 0.63 and a fold change (LMJF.29.0940 HY[…], CONSERVED) of 1.08. For the same compound, the fold change (LMJF.29.1310 CARNITINE/CHOLINE ACETYLTRANSFERASE, PUTATIVE) was 0.86, the fold change (LMJF.29.1470 HY[…], CONSERVED) was 0.86 and the fold change (LMJF.29.2440 HY[…], CONSERVED) was 1.01. For the same compound, the fold change (LMJF.30.2350 SPHINGOSINE 1-PHOSPHATE LYASE) was 1.2, the fold change (LMJF.30.2970 GLYCERALDEHYDE 3-PHOSPHATE DEHYDROGENASE, GLYCOSOMAL) was 1.09 and the fold change (LMJF.30.3390 CAS/CSE/IMPORTIN DOMAIN PROTEIN, PUTATIVE) was 0.98. The fold change (LMJF.31.2650 ACETOIN DEHYDROGENASE E3 COMPONENT-LIKE PROTEIN) was 0.96, the fold change (LMJF.31.2970 ACETYL-COA CARBOXYLASE, PUTATIVE) was 0.89 and the fold change (LMJF.33.1030 HY[…], CONSERVED) was 0.88. The fold change (LMJF.35.5040 polyadenylate-binding protein 1) was 0.88, the fold change (LMJF.35.5250 ALPHA-1,2-MANNOSYLTRANSFERASE, PUTATIVE) was 0.83 and the fold change (LMJF.36.5100 HY[…], CONSERVED) was 1.03. For the same compound, the fold change (LMJF.[…] RIBOSOMAL PROTEIN S7, PUTATIVE) was 1.35, the “fold change vs vehicle control” value (protein LINJ.03.0940 HY[…], CONSERVED) was 1.07 and the “fold change vs vehicle control” value (protein LINJ.09.0030 HY[…], CONSERVED) was 0.7. The “fold change relative to vehicle control” value (protein LINJ.11.0780 40S RIBOSOMAL PROTEIN S21, PUTATIVE) was 1.32, the fold change (protein LINJ.13.0990 […] SUBUNIT 2, PUTATIVE) was 0.91 and the “fold change vs vehicle control” value (protein LINJ.13.1460 ALPHA TUBULIN) was 0.98. The fold change (protein LINJ.15.0090 HEAT SHOCK PROTEIN HSLVU, ATPASE SUBUNIT HSLU, PUTATIVE) was 0.88, the “fold change relative to vehicle control” value (protein LINJ.16.1380 […], PUTATIVE) was 0.96 and the “fold change vs vehicle control” value (protein LINJ.19.0300 RNA BINDING PROTEIN) was 1.22. For the same compound, the fold change (protein LINJ.20.0630 CYTIDINE TR[…], PUTATIVE) was 1.05, the “fold change relative to vehicle control” value (protein LINJ.20.1390 COATOMER BETA SUBUNIT, PUTATIVE) was 0.93 and the “fold change vs vehicle control” value (protein LINJ.21.1310 40S RIBOSOMAL PROTEIN S23, PUTATIVE) was 1.16. The “fold change vs vehicle control” value (protein LINJ.23.1680 HY[…], CONSERVED) was 1.1, the “fold change vs vehicle control” value (protein LINJ.25.1170 […] OXIDASE VII, PUTATIVE) was 1.01 and the “fold change relative to vehicle control” value (protein LINJ.25.1220 RIBOSOMAL PROTEIN S25) was 1.27. The “fold change vs vehicle control” value (protein LINJ.26.1080 HY[…], CONSERVED) was 1.08, the “fold change vs vehicle control” value (protein LINJ.27.1140 HY[…], CONSERVED) was 1.02 and the “fold change vs vehicle control” value (protein LINJ.28.1100 RIBOSOMAL PROTEIN S20, PUTATIVE) was 0.97. The “fold change relative to vehicle control” value (protein LINJ.28.1940 R[…] A, 51KDA SUBUNIT, PUTATIVE) was 1.1, the fold change (protein LINJ.31.2350 ADP-RI[…], PUTATIVE) was 1.09 and the “fold change vs vehicle control” value (protein LINJ.34.0670 […]-ATP-ASE SUBUNIT 11, PUTATIVE) was 0.75. For the same compound, the fold change (protein LINJ.35.0410 40S RIBOSOMAL PROTEIN S3A, PUTATIVE) was 1.1, the “fold change relative to vehicle control” value (protein LINJ.35.0780 CBS DOMAIN PROTEIN, CONSERVED) was 1.01 and the “fold change vs vehicle control” value (protein LINJ.36.0510 HY[…], CONSERVED) was 0.99. For the same compound, the “fold change vs vehicle control” value (protein LINJ.36.3940 40S RIBOSOMAL PROTEIN S27-1, PUTATIVE) was 0.88, the fold change (protein LINJ.36.4180 HS1VU COMPLEX P[…]-LIKE) was 0.87 and the fold change (protein LINJ.36.7350 […] OXIDASE SUBUNIT I) was 0.96. The fold change (protein LMJF.01.0520 LONG-CHAIN-FATTY-ACID-COA LIGASE, PUTATIVE) was 0.91, the “fold change vs vehicle control” value (protein LMJF.02.0460 HY[…], CONSERVED) was 1.05 and the “fold change vs vehicle control” value (protein LMJF.03.0230 LONG CHAIN FATTY ACYL COA SYNTHETASE, PUTATIVE) was 0.98. The “fold change vs vehicle control” value (protein LMJF.03.0630 HY[…], CONSERVED) was 0.95, the fold change (protein LMJF.05.0780 HY[…], CONSERVED) was 1.06 and the fold change (protein LMJF.06.0010 HISTONE H4) was 1.11. For the same compound, the fold change (protein LMJF.06.0140 […] 6 SUBUNIT, PUTATIVE) was 0.69, the fold change (protein LMJF.06.0650 […], PUTATIVE) was 1 and the “fold change vs vehicle control” value (protein LMJF.08.0510 RIBOSE-PHOSPHATE PYROPHOSPHOKINASE, PUTATIVE) was 0.99. For the same compound, the “fold change vs vehicle control” value (protein LMJF.08.0550 T[…]-LIKE PROTEIN) was 1.01, the “fold change vs vehicle control” value (protein LMJF.08.1100 HY[…], CONSERVED) was 0.98 and the “fold change relative to vehicle control” value (protein LMJF.09.1120 MIT[…] BINDING PROTEIN 2,MRP2, GBP25) was 1.01. For the same compound, the “fold change vs vehicle control” value (protein LMJF.09.1260 HY[…], CONSERVED) was 0.98, the fold change (protein LMJF.10.1010 NUCLEOSIDE PHOSPHORYLASE-LIKE PROTEIN) was 0.97 and the fold change (protein LMJF.10.1240 HY[…], CONSERVED) was 0.91. For the same compound, the “fold change vs vehicle control” value (protein LMJF.11.0130 NGG1 I[…] 3-LIKE PROTEIN) was 0.94, the “fold change vs vehicle control” value (protein LMJF.11.0240 […] 7 SUBUNIT, PUTATIVE) was 1.1 and the fold change (protein LMJF.11.1050 PRETRA[…], ALPHA SUBUNIT, PUTATIVE) was 1.24. For the same compound, the “fold change vs vehicle control” value (protein LMJF.11.1110 60S RIBOSOMAL PROTEIN L28, PUTATIVE) was 1.17, the “fold change vs vehicle control” value (protein LMJF.12.0210 […] […]1L8 3, PUTATIVE) was 1.07 and the “fold change vs vehicle control” value (protein LMJF.12.0280 ORNITHINE DECARBOXYLASE, PUTATIVE) was 1. The “fold change vs vehicle control” value (protein LMJF.13.0450 HY[…], CONSERVED) was 0.93, the “fold change vs vehicle control” value (protein LMJF.13.0870 MIT[…] ALPHA SUBUNIT, PUTATIVE) was 1.33 and the “fold change vs vehicle control” value (protein LMJF.14.0130 INOSINE-GUANINE […], PUTATIVE) was 0.93. It also gave a fold change (protein LMJF.14.0310 […] 3 SUBUNIT, PUTATIVE) of 0.98, a fold change (protein LMJF.14.0650 FATTY ACID ELONGASE, PUTATIVE) of 1.11 and a fold change (protein LMJF.14.0660 FATTY ACID ELONGASE, PUTATIVE) of 1.17. The fold change (protein LMJF.14.0705 FATTY ACID ELONGASE, PUTATIVE) was 1.24, the fold change (protein LMJF.14.0740 FATTY ACID ELONGASE, PUTATIVE) was 1.23 and the “fold change relative to vehicle control” value (protein LMJF.14.1120 KINESIN K39, PUTATIVE) was 1.49. The “fold change vs vehicle control” value (protein LMJF.15.0230 LYSYL-TRNA SYNTHETASE, PUTATIVE) was 1.01, the “fold change vs vehicle control” value (protein LMJF.15.0280 RIBONUCLEOPROTEIN P18, MIT[…], PUTATIVE) was 0.99 and the fold change (protein LMJF.15.1010 GLUTAMATE DEHYDROGENASE) was 1.08. The “fold change relative to vehicle control” value (protein LMJF.16.0520 HY[…], CONSERVED) was 1.36, the fold change (protein LMJF.16.0540 ASPARTATE […], PUTATIVE) was 1.04 and the “fold change vs vehicle control” value (protein LMJF.16.0950 SUCROSE-PHOSPHATE SYNTHASE-LIKE PROTEIN) was 1.31. For the same compound, the “fold change vs vehicle control” value (protein LMJF.16.0960 HY[…], CONSERVED) was 0.93, the fold change (protein LMJF.16.1180 COATOMER DELTA SUBUNIT-LIKE PROTEIN) was 1.08 and the fold change (protein LMJF.17.0010 HY[…], CONSERVED) was 1.07. For the same compound, the “fold change vs vehicle control” value (protein LMJF.18.0510 ACONITASE, PUTATIVE) was 1.01, the “fold change vs vehicle control” value (protein LMJF.18.0890 RAB7 GTP BINDING PROTEIN, PUTATIVE) was 0.91 and the fold change (protein LMJF.18.1130 RAS-RELATED PROTEIN RAB-5, PUTATIVE) was 1. For the same compound, the fold change (protein LMJF.19.1120 […]-ATP-ASE SUBUNIT, PUTATIVE) was 0.82, the “fold change vs vehicle control” value (protein LMJF.19.1160 HY[…], CONSERVED) was 3.16 and the “fold change vs vehicle control” value (protein LMJF.19.1530 PEPT[…]-LIKE PROTEIN) was 1.01. For the same compound, the fold change (protein LMJF.20.0100 PHOSPH[…] C, GLYCOSOMAL) was 1.01, the “fold change vs vehicle control” value (protein LMJF.21.0720 HY[…], CONSERVED) was 0.93 and the fold change (protein LMJF.21.1250 ADENYLATE KINASE, PUTATIVE) was 0.71. The fold change (protein LMJF.21.1555 HY[…], CONSERVED) was 1.05, the fold change (protein LMJF.21.1580 HY[…], UNKNOWN FUNCTION) was 1.2 and the “fold change vs vehicle control” value (protein LMJF.21.1700 […] 2 SUBUNIT, PUTATIVE) was 1.03. It also gave a fold change (protein LMJF.22.0230 AMINO ACID PERMEASE, PUTATIVE) of 1.26 and a fold change (protein LMJF.22.0570 […] SUBUNIT 1, PUTATIVE) of 0.99.
